According to patent US7214713B2, “Antraquinone compositions as anticancer compositions and nutrition supplements and methods of making and using them” (priority 2000, dated 2007):

Test system: ascitic form of Gardner lymphosarcoma (IP-LsG)
Experiment: anti-cancer screening in mice with ascitic Gardner lymphosarcoma
Format: in vivo
Settings: for weight coefficient (weight loss in comparison with the control group): one week after the start of the therapy
Description: The red colorant isolated under the above-described conditions and having the above-mentioned characteristics was subjected to a screening study for anti-cancer properties.
The tested substance was administered to mice suffering from the ascitic form of Gardner lymphosarcoma (IP-LsG). 6-(2-(2-hydroxyethyl)aminoethyl)-5,11-dioxo-5,6-dihydro-11H-indeno[1,2-c]isoquinoline hydrochloride having the summary formula C20H18N2O3.HCl was used as a reference substance.
Female C3H mice weighing 26.1 to 27.3 g were used. The animals were kept in plastic containers and fed with the NOE diet made by RATIO, s.r.o., Breclav, Czech Republic, and with potable water ad libitum. The temperature in the room was maintained, the relative humidity was 60%, and the light regimen was not regulated.
The Gardner lymphosarcoma is maintained in the ascitic form in the C3H mice by inoculating ascitic cells removed a week after the previous inoculation by puncturing the abdominal cavity. The mice are administered with 0.2 ml of the ascites diluted with an isotonic solution of sodium chloride for injections intraperitoneally 10 to 20 times. The cell material for tests is obtained by puncturing the abdominal cavity on the seventh day following inoculation. For the therapeutic test, the inoculation with the ascites diluted with an isotonic solution of sodium chloride for injections was made by administering 10^7 cells in a volume of 0.2 ml i.p. to each animal.
The C3H mice were over 6 weeks old, weighing 26.1 to 27.3 g, in groups of 10 animals, the control was-common. Two dosage groups were used for each route of administration and for one substance tested.
The dosage levels: 200 and 100 mg/kg×5 p.o. and 100 and 50 mg/kg×5 s.c. in a volume 0.2 to 0.4 ml and 0.2 to 0.4 ml p.o. (reference substance), resp. for 20 g body weight. Frequency of administration: 1× daily beginning on the first day. The tested substance was administered in a continuous pattern on the 1st to 5th days in doses given in Table 1 and the reference substance was administered p.o. once on the 1st day.
After the administration was finished, the animals were left for monitoring the survival time. The dose dependence of the survival time was evaluated in comparison with the non-administered control. Time as a biological response was currently evaluated by means of the non-parametric test according to Hájek (Fabián V.: Základní statistické metody (“Basic Statistical Methods”), NCSAV, Prague 1963).
After the experiment was complete, time in case of point estimates was evaluated using the test of identity of two means (Student t-test) under the presumption of logarithmic-normal distribution of time values and under the presumption of various unknown variances (Roth Z., Josífko M., Malý V., Trcka V.: Statistické metody v experimentální medicíne (“Statistical Methods in Experimental Medicine”); p. 278, SZN, Prague 1962). Geometrical averages were calculated from the individual values of time to death. The differences In average values in which the value of the test criterion has exceeded the critical value for the significance level of 5% were designated as statistically significant.

[1] = 100 mg/kg p.o. once on the 1st day
[2] = 200 mg/kg p.o. once on the 1st day

Cl.O=C1c2ccccc2-c2c1c1ccccc1c(=O)n2CCNCCO [reference, 6-(2-(2-hydroxyethyl)aminoethyl)-5,11-dioxo-5,6-dihydro-11H-indeno[1,2-c]isoquinoline hydrochloride]
median of time to death [1]: >48.5 days
survival LTS (number of animals surviving on day 65) [1]: 5/10
weight coefficient (weight loss in comparison with the control group) [1]: −6.67%
median of time to death [2]: >65.0 days
survival LTS (number of animals surviving on day 65) [2]: 10/10
weight coefficient (weight loss in comparison with the control group) [2]: −14.63%
